US20260364030A1, “NOVEL SELECTIVE INHIBITORS OF LYSYL OXIDASES” (Syntara Limited, priority 2022, published 2026)
Like-named read-outs stand apart in the source and are kept apart here.

Columns and labels:
Format in all cases: biochemical
LOXL1 = biological target: T1, LOXL1 (Homo sapiens, UniProt Q08397); assay: LOXL1 inhibition, Amplex Red oxidation assay; settings: 30 min incubation with enzyme at 37 °C
T1 sequence (Q08397 96-574): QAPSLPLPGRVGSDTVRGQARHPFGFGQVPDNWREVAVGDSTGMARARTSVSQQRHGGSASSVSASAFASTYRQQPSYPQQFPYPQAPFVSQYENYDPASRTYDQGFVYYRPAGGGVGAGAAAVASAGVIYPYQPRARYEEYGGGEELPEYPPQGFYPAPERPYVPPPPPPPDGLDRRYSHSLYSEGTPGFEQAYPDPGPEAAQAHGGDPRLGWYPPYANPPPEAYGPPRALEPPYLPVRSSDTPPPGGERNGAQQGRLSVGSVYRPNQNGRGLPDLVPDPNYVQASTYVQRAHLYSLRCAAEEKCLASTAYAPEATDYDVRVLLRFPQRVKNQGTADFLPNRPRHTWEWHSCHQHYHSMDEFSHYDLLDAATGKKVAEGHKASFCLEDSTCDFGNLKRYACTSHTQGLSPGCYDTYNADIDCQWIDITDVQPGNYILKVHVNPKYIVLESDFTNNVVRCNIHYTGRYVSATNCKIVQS
Method: (§1) LOX and LOXL protein family members can be acquired as recombinant active proteins from commercial sources, or extracted from animal tissues like bovine aorta, tendons, pig skin; or prepared from cell cultures. The inhibitory effects of the compounds of the present invention were tested against the given LOX or LOXL preparation using a method based on the detection of hydrogen peroxide with an Amplex Red oxidation assay [Zhou et al, 1997]. The assay was developed using either 384 or 96 well format. Briefly, in a standard black, clear bottom 384 well plate assay 25 µL of a dilution of any of the isoenzymes and orthologues in 1.2 M urea, 50 mM sodium borate buffer (pH 8.2) were added into each well in the presence of […] and 0.5 mM pargyline (to inhibit SSAO and MAO-B and MAO-A, respectively; not necessary if the enzyme is from a recombinant or purified form). Test compounds were dissolved in DMSO and tested in a Concentration Response Curve (CRC) with 11 data points, typically in the micromolar or nanomolar range after incubation with the enzyme for 30 min at 37 °C. […] The fluorescence (RFU) was read every 2.5 min for 30 min at 37 °C, excitation 544 nm and emission 590 (Optima; BMG labtech). The slope/min of the kinetics for each well was calculated using MARS data analysis software (BMG labtech) and this value was used to deduce the IC50 value (Dotmatics). […]

LOXL2 = biological target: T2, LOXL2 (Homo sapiens, UniProt Q9Y4K0); assay: LOXL2 inhibition, Amplex Red oxidation assay
T2 sequence (Q9Y4K0 26-774): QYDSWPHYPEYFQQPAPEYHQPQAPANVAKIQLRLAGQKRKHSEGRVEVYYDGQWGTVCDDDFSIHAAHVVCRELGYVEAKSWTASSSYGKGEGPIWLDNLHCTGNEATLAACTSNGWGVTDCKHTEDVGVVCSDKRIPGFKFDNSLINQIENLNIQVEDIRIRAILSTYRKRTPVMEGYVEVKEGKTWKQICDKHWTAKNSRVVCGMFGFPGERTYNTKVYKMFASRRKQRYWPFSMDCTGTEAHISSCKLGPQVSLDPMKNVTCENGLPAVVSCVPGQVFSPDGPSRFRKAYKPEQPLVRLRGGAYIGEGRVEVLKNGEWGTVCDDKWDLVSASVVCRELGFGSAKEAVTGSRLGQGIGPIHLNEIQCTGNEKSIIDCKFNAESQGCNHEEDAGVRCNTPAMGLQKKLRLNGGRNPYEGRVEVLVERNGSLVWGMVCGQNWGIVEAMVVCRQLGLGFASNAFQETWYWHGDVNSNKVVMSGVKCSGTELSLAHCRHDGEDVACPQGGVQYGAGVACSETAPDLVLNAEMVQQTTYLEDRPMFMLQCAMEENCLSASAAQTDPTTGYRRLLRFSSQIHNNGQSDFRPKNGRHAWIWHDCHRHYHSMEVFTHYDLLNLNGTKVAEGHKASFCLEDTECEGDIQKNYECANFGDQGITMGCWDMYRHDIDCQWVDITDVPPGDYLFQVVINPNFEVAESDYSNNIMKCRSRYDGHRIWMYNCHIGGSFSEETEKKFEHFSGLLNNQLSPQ
Method: LOX and LOXL protein family members can be acquired as recombinant active proteins from commercial sources, or extracted from animal tissues like bovine aorta, tendons, pig skin; or prepared from cell cultures. The inhibitory effects of the compounds of the present invention were tested against the given LOX or LOXL preparation using a method based on the detection of hydrogen peroxide with an Amplex Red oxidation assay [Zhou et al, 1997]. The assay was developed using either 384 or 96 well format. Briefly, in a standard black, clear bottom 384 well plate assay 25 µL of a dilution of any of the isoenzymes and orthologues in 1.2 M urea, 50 mM sodium borate buffer (pH 8.2) were added into each well in the presence of […] and 0.5 mM pargyline (to inhibit SSAO and MAO-B and MAO-A, respectively; not necessary if the enzyme is from a recombinant or purified form). […] of a reaction mixture containing twice the KM concentration of putrescine (Sigma Aldrich, e.g. 20 mM for LOX and LOXL1 or 10 mM for LOXL2 and 4 mM for LOXL3 and LOXL4), 120 µM Amplex Red (Thermo Fisher Scientific) and 1.5 U/mL horseradish peroxidase (Sigma Aldrich) prepared in 1.2 M urea, 50 mM sodium borate buffer (pH 8.2) were then added to the corresponding wells. The above volumes were doubled in the case of 96 wells plate. The fluorescence (RFU) was read every 2.5 min for 30 min at 37 °C, excitation 544 nm and emission 590 (Optima; BMG labtech). The slope/min of the kinetics for each well was calculated using MARS data analysis software (BMG labtech) and this value was used to deduce the IC50 value (Dotmatics). The ability of the inventive compounds to inhibit the amine oxidase activity of LOX and other family members is shown in Table 5.

Human recombinant LOXL3 = Human recombinant LOXL3 (Homo sapiens, UniProt P58215); assay: LOXL3 inhibition, Amplex Red oxidation assay; settings: 30 min incubation with enzyme at 37 °C
Chain of Human recombinant LOXL3 (P58215 26-753): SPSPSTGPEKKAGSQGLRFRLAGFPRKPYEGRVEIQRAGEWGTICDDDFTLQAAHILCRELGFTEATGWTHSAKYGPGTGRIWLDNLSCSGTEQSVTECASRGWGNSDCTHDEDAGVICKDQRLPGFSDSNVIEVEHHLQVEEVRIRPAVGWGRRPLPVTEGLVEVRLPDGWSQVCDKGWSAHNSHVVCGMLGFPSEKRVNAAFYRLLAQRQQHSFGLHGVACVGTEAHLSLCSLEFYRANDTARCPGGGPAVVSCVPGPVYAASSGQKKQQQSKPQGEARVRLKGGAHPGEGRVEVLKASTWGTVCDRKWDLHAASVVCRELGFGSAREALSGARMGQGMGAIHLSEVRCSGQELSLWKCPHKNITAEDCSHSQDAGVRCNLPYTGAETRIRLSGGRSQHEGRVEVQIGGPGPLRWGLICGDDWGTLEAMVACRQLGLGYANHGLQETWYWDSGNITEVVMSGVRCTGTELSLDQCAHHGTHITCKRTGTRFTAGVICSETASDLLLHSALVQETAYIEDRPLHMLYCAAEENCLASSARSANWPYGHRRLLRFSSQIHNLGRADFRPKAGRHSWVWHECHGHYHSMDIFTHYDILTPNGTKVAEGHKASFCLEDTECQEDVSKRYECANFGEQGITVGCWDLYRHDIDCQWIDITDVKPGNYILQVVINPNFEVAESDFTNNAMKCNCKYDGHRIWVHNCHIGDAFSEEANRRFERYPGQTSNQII
Method: as §1

[1] = 30 min incubation with enzyme at 37 °C, read-out: Human recombinant LOXL2 Activity IC50

| IC50 (LOXL2; 2 h incubation with enzyme at 37 °C, read-out: Human LOXL2 Activity IC50) | SMILES | IC50 (LOXL1) | IC50 (LOXL2; [1]) | IC50 (Human recombinant LOXL3) |
| --- | --- | --- | --- | --- |
|  | N#CCCN [BAPN, β-aminopropionitrile, reference compound] | 2500 nM | 400 nM | 500 nM |
| < 2000 nM | NC/C(=C\F)CS(=O)(=O)c1ccccc1 [Compound 1, (E)-3-fluoro-2-((phenylsulfonyl)methyl)prop-2-en-1-amine] | 13200 nM | 4800 nM | 5900 nM |
